Measured values taken from US20260376283A1, “A METHOD IMPLEMENTING MORPHOLOGICAL CHANGES OF EXTRACELLULAR ORGANELLE VESICLES SO AS TO EXAMINE THE TRANSPORTING ACTIVITY OF MEMBRANE TRANSPORT PROTEINS AND OTHER RELATED METHODS” (PARIS SCIENCES ET LETTRES, priority 2023, published 2026).
“Also recorded” adds a separate entry of the source. Read-outs that look alike come from different tables or passages of the source.

Key:
[1] = test system: ion channel TMEM175 localized on lysosomes or endolysosomes vesicles; details: cited from earlier work
[2] = test system: ion channel TMEM175 localized on lysosomes or endolysosomes vesicles; test: K+ ion channel TMEM175 transporting activity by endolysosome vesicle morphological change (Example 8); assay type: biochemical; details: role: substrate, KCl 100 mM inside, 1 mM outside with 200 mM sucrose
Protocol: Before starting acquisition, extracellular endolysosome vesicles are charged with K^+ ions thanks to a bath sonicator and an extracellular solution (210 mOsm/L) containing 100 mM of KCl and 10 mM of Hepes, pH 7.2. Then, extracellular endolysosome vesicles are seeded on a glass plate for observation. Before starting acquisition, extravesicular aqueous solution is removed to be changed when starting acquisition.
Once the acquisition is started, the extracellular organelle vesicle, held by the micropipette is passed through an extra-vesicular aqueous solution (200 mOsm/L) containing 1 mM of KCl and 200 mM of sucrose. Contacting very small amount of potassium ions with said extracellular organelle vesicle generates a concentration gradient of K^+ between the inside and the outside of the vesicles. […] This innovative process allows to examine the transporting activity of the ion channel TMEM175 localized on lysosomes or endolysosomes vesicles in absence and/or in presence of an antagonist (4-AP) and/or agonist (DCPIB).

[3] = test system: giant organelles from the ER; test: Giant organelle formation after pre-treatment of cells (ER); assay type: cell-based; details: pre-treatment between 1 and 90 min before swelling
Source text: (§1) According to a particular embodiment of the first process, prior to the generation of giant extracellular organelle vesicles, cells may be treated with molecules to prevent protein degradation, modulate biochemical reactions on organelles, etc., so that giant extracellular organelle vesicles can bear specific biochemical properties. The metabolic conditions and the architecture of cells and its organelles can thus be further modified before step v), by chemicals and/or by modifying the expression level of proteins impacting the architecture of cells and/or their organelles and/or the metabolic conditions. […] These manipulations enable controlling the size of the recovered giant extracellular organelle vesicles and their contact: tuning the surface-to-volume ratio, prior to the osmotic swelling, impacting the future recovered giant organelle size, with adapted osmotic swelling. […]

[4] = test system: giant extracellular organelles vesicles coming from autophagosomes; test: Giant organelle formation after pre-treatment of cells (autophagosomes); assay type: cell-based; details: added before swelling and extraction
Source text: as §1

[5] = test system: giant extracellular organelles vesicles from endosome, lysosome, autolysosome and multivesicular body; test: Giant organelle formation after pre-treatment of cells (endosome, lysosome, autolysosome, multivesicular body); assay type: cell-based; details: added between 12 to 24 hours before swelling
Source text: as §1

[6] = test system: ion pump SERCA localized on Endoplasmic Reticulum vesicles; test: Ca2+ pump transporting activity by morphological change (deflation/re-swelling) of ER extracellular organelle vesicles (Example 1); assay type: biochemical; details: role: substrate
Protocol: An initial HKM buffer was prepared with 50 mM Hepes (known as 2-[4-(2-hydroxyethyl)piperazin-1-yl]ethanesulfonic acid), 120 mM potassium acetate, and 1 mM MgCl2 (in Milli-Q water) at pH 7.4. Said initial HKM buffer has an osmolarity of 280±15 mOsm/L.
Then, a membrane tension is applied on cells so as to produce extracellular organelle vesicles without lysing them. At that step, the extracellular organelle vesicles are released (or produced) thanks to the lysis and the removal of the plasma membrane. The membrane tension is carried out by micro-manipulation of the cells under confocal microscope thanks to a micropipette aspiration technique. Micropipette radius is around 1 μm. Thanks to a slight aspiration, a bilayer tongue of the plasma membrane was sucked into the micropipette. The aspiration is then increased at an approximate rate of 10 mbar/min, causing a proportional increase in the bilayer surface tension. At a certain applied tension (e.g. surface tension<0.75 mN/m), the plasma membrane ruptured thanks to a pore opening in the plasma membrane and the extracellular organelle vesicles are released (or extracted).
After extraction, one or more extracellular organelle vesicles are isolated using a micropipette. The micropipettes are used to hold a vesicle during the following methods of the present invention. Before the addition of molecules (ions, sugars or drug molecules), an acquisition is launched to observe the initial size of the vesicle.
Once the acquisition is started, the extracellular organelle vesicle, held by the micropipette is passed through an aqueous solution containing CaCl2 (60 mOsm/L) and ATP (100 μM). Contacting calcium ions with said extracellular organelle vesicle increases the osmolarity of the extravesicular aqueous medium. […] This innovative process allows to examine the transporting activity of the ion pump SERCA localized on Endoplasmic Reticulum vesicles.
FIG. 1 A) represents an extracellular organelle vesicle of endoplasmic reticulum (ER) which is maintained thanks to a micropipette into a HKM diluted buffer (20 mOsm/L) as an extravesicular aqueous medium. This extracellular organelle vesicle has been isolated thanks to an ER resident protein (KDEL), over-expressed by COS7 cells, before organelle vesicles extraction.
At t=0s, CaCl2 (60 mOsm/L) and ATP (100 μM) were added. At t=20s, the ER extracellular organelle vesicle is deflated: it reached its minimum volume (Vi1) and its associated maximum fluorescence signal (Fl1).
Once the acquisition is started, the ER extracellular organelle vesicle, held by the micropipette is passed through an aqueous solution containing sucrose (60 mOsm). […] Sucrose can thus be used as a control or reference in the method of the present invention.

SERCA pump [7] = test: Screening of candidate compounds modulating SERCA activity by ER vesicle re-swelling (Example 4); assay type: biochemical; details: role: inhibitor; for re-swelling process in presence of inhibitor: thapsigargin 10 μM in DMSO, 10 min, CaCl2 60 mOsm/L, ATP 1 mM / 100 μM, compared to vesicle not incubated
Protocol: Once the ER extracellular organelle vesicles are extracted, thapsigargin (10 μM) in DMSO, is added to the medium. […] After 10 minutes of incubation with thapsigargin, and once the acquisition is started, the extracellular organelle vesicle, held by the micropipette is passed through an aqueous solution containing CaCl2 (60 mOsm/L) and ATP (1 mM).
FIG. 6 A) represents an ER extracellular organelle vesicle maintained thanks to a micropipette into a HKM diluted buffer (20 mOsm/L). This extracellular organelle vesicle has been isolated thanks to an ER resident protein, over-expressed by COS7 cells, before organelle vesicles extraction. This extracellular organelle vesicle was incubated with thapsigargin at 10 μM during 10 min.
At t=0s, CaCl2 (60 mOsm/L) and ATP (100 μM) were added. Dotted line circles all correspond to the size of the extracellular organelle vesicle before the beginning of the process.

SERCA pump [8] = details: role: inhibitor; cited from earlier work

Q: With Nc1ccncc1 [4-AP] as the compound, how does the “mode of action on TMEM175” value ([1]; role: inhibitor) read?
A: Its value is “antagonist”.

Q: With CCCCC1(C2CCCC2)Cc2cc(OCCCC(=O)O)c(Cl)c(Cl)c2C1=O (stereo not shown) [DCPIB] as the compound, how does the “mode of action on TMEM175” value ([1]; role: activator) read?
A: Its value is “agonist”.

Q: For [Cl-].[K+] [KCl], which “deflation of endolysosome vesicle” value [2] is on record?
A: The value was “the vesicle deflates in a few seconds”.

Q: And the “re-swelling process of endolysosome vesicle” value ([2]; following minutes)?
A: The value was “a re-swelling process is not observed”.

Q: Which “effect on giant organelle formation from the ER” value [3] does the source give for C/C1=C/C(=O)O[C@@H]2C[C@@H](CC[C@H](C)/C=C\C=C\CC1)O[C@@](O)([C@@H]1CSC(=O)N1)C2 [Latrunculin A] here?
A: Its value is “allows the formation of bigger giant organelles from the ER”.

Q: For CO/C1=C\C(C)=C\[C@@H](C)[C@@H](O)[C@@H](C)C/C(C)=C/C=C/[C@H](OC)[C@@H]([C@@H](C)[C@@H](O)[C@H](C)C2(O)C[C@@H](O)[C@H](C)[C@@H](C(C)C)O2)OC1=O (stereo partly shown) [bafylomicin], which “effect on giant extracellular organelle vesicles from autophagosomes” value [4] is on record?
A: Its value is “allows to obtain more giant extracellular organelles vesicles coming from autophagosomes”.

Q: With COC(=O)Nc1nc2ccc(C(=O)c3cccs3)cc2[nH]1 [nocodazole] as the compound, how does the “effect on giant organelle formation from the ER” value [3] read?
A: Its value is “allows the formation of bigger giant organelles from the ER”.

Q: For CO[C@H]1C[C@@H]2CC[C@@H](C)[C@@](O)(O2)C(=O)C(=O)N2CCCC[C@H]2C(=O)O[C@H]([C@H](C)C[C@@H]2CC[C@@H](O)[C@H](OC)C2)CC(=O)[C@H](C)/C=C(\C)[C@@H](O)[C@@H](OC)C(=O)[C@H](C)C[C@H](C)/C=C/C=C/C=C/1C [rapamycin], which “effect on giant extracellular organelle vesicle formation” value [5] is on record?
A: The value was “allows to form bigger giant extracellular organelles vesicles”.

Q: Which results are given for OC[C@H]1O[C@@](CO)(O[C@H]2O[C@H](CO)[C@@H](O)[C@H](O)[C@H]2O)[C@@H](O)[C@@H]1O [sucrose]?
A: re-swelling process of vesicle ([6]; 60 mOsm/L, following minutes, CaCl2 with ATP (100 μM), sucrose as control): no re-swelling is observed; also recorded: no re-swelling process is visible; deflation of vesicle on contacting ([6]; CaCl2 60 mOsm/L with ATP (100 μM), or sucrose 60 mOsm without ATP stated, vesicle internal 20 mOsm/L, COS7 ER vesicle): deflates in a few seconds; transport inside the ER extracellular organelle vesicle ([6]; sucrose 60 mOsm, FIG. 2): not transported inside the ER extracellular organelle vesicle

Q: For C/C=C(/C)C(=O)O[C@H]1C(C)=C2[C@H]([C@@H]1OC(=O)CCCCCCC)[C@@](C)(OC(C)=O)C[C@H](OC(=O)CCC)[C@@]1(O)[C@H]2OC(=O)[C@@]1(C)O [thapsigargin], which “Vf/Vi1 and Vf/Vi versus reference ratio” value (SERCA pump [7]; reference ratio obtained without thapsigargin) is on record?
A: The value was “Vf/Vi1<Vf,ref/Vi1,ref, and Vf/Vi<Vf,ref/Vi,ref”.

Q: What about the “re-swelling process in presence of inhibitor” value (SERCA pump [7]) of the same compound?
A: The value was “the reswelling process is decreased or not present”.

Q: And the “re-swelling process in presence of inhibitor” value (SERCA pump [7]; listed as thaspigargin)?
A: Its value is “the re-swelling process is almost off”.

Q: What about the “effect on the transporting activity of SERCA with respect to Ca^2+” value (SERCA pump [7]; thapsigargin 10 μM, FIGS. 1 and 6) of the same compound?
A: Its value is “inhibitory effect”.

Q: What about the “known activity on the SERCA pump” value (SERCA pump [8]) of the same compound?
A: Its value is “known inhibitor of the SERCA pump”.
